In PubChem BioAssay AID248 (DTP/NCI, 2004):
Several values for one entry are separate records, joined by “and”; a condition that tells them apart may be missing. Equal values may be shown once. Toxic doses and inconclusive results are not listed. Cut-off read from the data, not from the text of the source: active = T/C of 150% or more; inactive = T/C below 125%.

Test system: L1210 leukemia ip in BDF1 mice, survival T/C
Assay: NCI In Vivo Anticancer Drug Screen. Data for tumor model L1210 Leukemia (intraperitoneal) in B6D2F1 (BDF1) mice
Details: endpoint: mean survival time, higher = longer survival
Procedure, shortened: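 Tumor was transplanted into mice, which were then dosed with test compound or vehicle alone. Survival was recorded for each group, and the treated figure was expressed relative to the control figure.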

[1] = dose: 100.0 mg/kg/injection, schedule: Q04DX002 (ip), vehicle: Klucel (hydroxypropylcellulose) (HPC)
[2] = dose: 200.0 mg/kg/injection, schedule: Q04DX002 (ip), vehicle: Klucel (hydroxypropylcellulose) (HPC)
[3] = dose: 400.0 mg/kg/injection, schedule: Q04DX002 (ip), vehicle: Klucel (hydroxypropylcellulose) (HPC)
[4] = dose: 75.0 mg/kg/injection, schedule: Q01DX001 (ip), vehicle: other
[5] = dose: 100.0 mg/kg/injection, schedule: Q04DX003 (ip), vehicle: saline with Tween-80
[6] = dose: 200.0 mg/kg/injection, schedule: Q04DX003 (ip), vehicle: saline with Tween-80
[7] = dose: 400.0 mg/kg/injection, schedule: Q04DX003 (ip), vehicle: saline with Tween-80
[8] = dose: 100.0 mg/kg/injection, schedule: Q01DX009 (ip), vehicle: saline with Tween-80
[9] = dose: 100.0 mg/kg/injection, schedule: Q04DX002 (ip), vehicle: saline with Tween-80
[10] = dose: 200.0 mg/kg/injection, schedule: Q01DX009 (ip), vehicle: saline with Tween-80
[11] = dose: 200.0 mg/kg/injection, schedule: Q04DX002 (ip), vehicle: saline with Tween-80
[12] = dose: 400.0 mg/kg/injection, schedule: Q04DX002 (ip), vehicle: saline with Tween-80
[13] = dose: 100.0 mg/kg/injection, schedule: Q01DX009 (ip), vehicle: saline
[14] = dose: 200.0 mg/kg/injection, schedule: Q01DX009 (ip), vehicle: saline
[15] = dose: 100.0 mg/kg/injection, schedule: Q04DX003 (ip), vehicle: Klucel (hydroxypropylcellulose) (HPC)
[16] = dose: 200.0 mg/kg/injection, schedule: Q04DX003 (ip), vehicle: Klucel (hydroxypropylcellulose) (HPC)
[17] = dose: 400.0 mg/kg/injection, schedule: Q04DX003 (ip), vehicle: Klucel (hydroxypropylcellulose) (HPC)
[18] = dose: 100.0 mg/kg/injection, schedule: Q01DX009 (ip), vehicle: Klucel (hydroxypropylcellulose) (HPC)
[19] = dose: 200.0 mg/kg/injection, schedule: Q01DX009 (ip), vehicle: Klucel (hydroxypropylcellulose) (HPC)
[20] = dose: 400.0 mg/kg/injection, schedule: Q01DX009 (ip), vehicle: Klucel (hydroxypropylcellulose) (HPC)
[21] = dose: 50.0 mg/kg/injection, schedule: Q01DX009 (ip), vehicle: Klucel (hydroxypropylcellulose) (HPC)
[22] = dose: 50.0 mg/kg/injection, schedule: Q01DX009 (ip), vehicle: saline
[23] = dose: 50.0 mg/kg/injection, schedule: Q01DX009 (ip), vehicle: saline with Tween-80
[24] = dose: 200.0 mg/kg/injection, schedule: Q01DX001 (ip), vehicle: saline
[25] = dose: 400.0 mg/kg/injection, schedule: Q01DX001 (ip), vehicle: saline

Measured: T/C

CCNC(=O)NCc1ccccc1Cl
inactive: [1] 97 % of control | [2] 102 % of control | [3] 112 % of control

CCCCC(CCCC)NCCOC(=O)c1ccc(N)cc1
inactive: [4] 102 % of control

CCCCCC(C)O[Si](C)Cc1ccccc1 (stereo not given)
inactive: [5] 95 % of control | [6] 97 % of control | [7] 90 % of control

CCCCOC(=O)C1OC1c1ccccc1 (stereo not given)
inactive: [8] 88 % of control | [9] 90 % of control | [10] 95 % of control | [11] 88 % of control | dose: 400.0 mg/kg/injection, schedule: Q01DX009 (ip), vehicle: saline with Tween-80 95 % of control | [12] 102 % of control

C(=C\c1ccnc2ccccc12)/c1ccccc1
inactive: [13] 101 % of control | [5] 89 % of control | [14] 101 % of control | [6] 94 % of control | dose: 400.0 mg/kg/injection, schedule: Q01DX009 (ip), vehicle: saline 100 % of control | [7] 89 % of control

O=C(NC(=S)Nc1cccc2ccccc12)c1ccccc1F
inactive: dose: 100.0 mg/kg/injection, schedule: Q04DX002 (ip), vehicle: saline 102 % of control | dose: 200.0 mg/kg/injection, schedule: Q04DX002 (ip), vehicle: saline 88 % of control | dose: 400.0 mg/kg/injection, schedule: Q04DX002 (ip), vehicle: saline 102 % of control

NC(N)=NN=C(c1ccc(F)cc1)c1ccc(F)cc1
inactive: dose: 4.0 mg/kg/injection, schedule: Q01DX Z (oral), vehicle: carboxymethylcellulose (CMC) 111 % of control | dose: 8.0 mg/kg/injection, schedule: Q01DX Z (oral), vehicle: carboxymethylcellulose (CMC) 104 % of control | dose: 10.0 mg/kg/injection, schedule: Q01DX001 (ip), vehicle: carboxymethylcellulose (CMC) 100 % of control

CCCCCCCCCCCCCCCCC1(CC)NC(=O)NC1=O (stereo not given)
inactive: [15] 95 % of control | [16] 93 % of control | [17] 96 % of control

O=C1NC(=O)C(=Cc2ccccc2)C(=O)N1
inactive: [9] 98 % of control | dose: 200.0 mg/kg/injection, schedule: Q01DX Z (ip), vehicle: methylcellulose (MC) 94 % of control | [11] 106 % of control

C1=NN=C2C=C3CCc4ccccc4C3CC12 (stereo not given)
inactive: dose: 100.0 mg/kg/injection, schedule: Q01DX001 (ip), vehicle: acetone 93 % of control | dose: 200.0 mg/kg/injection, schedule: Q01DX001 (ip), vehicle: acetone 96 % of control

NC(=O)c1cc(Cl)ccc1OC(=O)Nc1ccccc1F
inactive: [18] 115 % of control | [19] 102 % of control | [20] 98 % of control

O=c1[nH]n(-c2ccccc2)c(=O)c2ccccc12
inactive: dose: 100.0 mg/kg/injection, schedule: Q01DX001 (ip), vehicle: Klucel (hydroxypropylcellulose) (HPC) 110 % of control and 102 % of control | dose: 200.0 mg/kg/injection, schedule: Q01DX001 (ip), vehicle: Klucel (hydroxypropylcellulose) (HPC) 100 % of control and 94 % of control | dose: 400.0 mg/kg/injection, schedule: Q01DX001 (ip), vehicle: Klucel (hydroxypropylcellulose) (HPC) 100 % of control and 104 % of control

Cc1nn(CCO)c(C)c1N=[N+]([O-])c1c(C)nn(CCO)c1C
inactive: dose: 25.0 mg/kg/injection, schedule: Q01DX009 (ip), vehicle: Klucel (hydroxypropylcellulose) (HPC) 93 % of control and 98 % of control | dose: 30.0 mg/kg/injection, schedule: Q01DX009 (ip), vehicle: saline 95 % of control | [21] 95 % of control and 107 % of control | dose: 50.0 mg/kg/injection, schedule: Q04DX002 (ip), vehicle: Klucel (hydroxypropylcellulose) (HPC) 101 % of control | [1] 96 % of control | [2] 96 % of control

CC(C)NCCOC(=O)c1ccc(N)cc1
inactive: dose: 75.0 mg/kg/injection, schedule: Q01DX001 (ip), vehicle: saline 102 % of control | dose: 150.0 mg/kg/injection, schedule: Q01DX001 (ip), vehicle: saline 105 % of control

N=C(N)N(CC(=O)O)Cc1ccccc1
inactive: [9] 101 % of control | [11] 114 % of control | [12] 104 % of control

CCN(CC)CCN1C(=O)CN=C(c2ccccn2)c2cc(Cl)ccc21
inactive: [22] 101 % of control | [13] 104 % of control | [5] 97 % of control | [14] 112 % of control | [6] 92 % of control

CCOC(=O)C(O)(CC)CCC(C)C (stereo not given)
inactive: [23] 101 % of control | [8] 101 % of control | [10] 111 % of control

CCC(c1ccccc1)c1nc2ccccc2c2ccccc12 (stereo not given)
inactive: [21] 97 % of control | [18] 97 % of control | [19] 94 % of control

CCCCn1c(C)nc2c(NN=C(N)N)c3ccccc3c(N=NC(=N)N)c21
inactive: dose: 7.5 mg/kg/injection, schedule: Q01DX Z (oral), vehicle: carboxymethylcellulose (CMC) 102 % of control | dose: 15.0 mg/kg/injection, schedule: Q01DX Z (ip), vehicle: carboxymethylcellulose (CMC) 95 % of control | dose: 15.0 mg/kg/injection, schedule: Q01DX Z (oral), vehicle: carboxymethylcellulose (CMC) 104 % of control | dose: 30.0 mg/kg/injection, schedule: Q01DX Z (oral), vehicle: carboxymethylcellulose (CMC) 98 % of control | dose: 60.0 mg/kg/injection, schedule: Q01DX Z (oral), vehicle: carboxymethylcellulose (CMC) 98 % of control

O=[N+]([O-])c1ccc(Oc2c(Cl)cccc2Cl)cc1
inactive: [15] 96 % of control | [16] 95 % of control | [17] 96 % of control

O=[N+]([O-])c1cc(O)ccc1Cl
inactive: [22] 93 % of control | [13] 102 % of control | dose: 100.0 mg/kg/injection, schedule: Q04DX003 (ip), vehicle: alcohol 104 % of control | [14] 87 % of control

O=S(=O)(Nc1nccs1)c1ccc(N=Nc2ccc(O)c3ncccc23)cc1
inactive: [24] 102 % of control | [25] 101 % of control

OC1(C2CCC(C(F)(F)F)CC2)C2C=CC1CC2 (stereo not given)
inactive: dose: 75.0 mg/kg/injection, schedule: Q04DX002 (ip), vehicle: Klucel (hydroxypropylcellulose) (HPC) 93 % of control | dose: 150.0 mg/kg/injection, schedule: Q04DX002 (ip), vehicle: Klucel (hydroxypropylcellulose) (HPC) 93 % of control | dose: 300.0 mg/kg/injection, schedule: Q04DX002 (ip), vehicle: Klucel (hydroxypropylcellulose) (HPC) 100 % of control

CCOc1ccc(N=Nc2ccc(N)cc2N)cc1
inactive: [1] 96 % of control | [2] 101 % of control | [3] 96 % of control

COC(=O)Nc1cccc(NC(=O)C(=O)O)c1
inactive: dose: 25.0 mg/kg/injection, schedule: Q01DX009 (ip), vehicle: saline with Tween-80 105 % of control | dose: 25.0 mg/kg/injection, schedule: Q04DX003 (ip), vehicle: saline with Tween-80 107 % of control | [23] 98 % of control | dose: 50.0 mg/kg/injection, schedule: Q04DX003 (ip), vehicle: saline with Tween-80 105 % of control | [8] 102 % of control | [5] 94 % of control and 100 % of control | [6] 105 % of control

Nc1ccc(S(=O)(=O)F)c(Cl)c1
inactive: dose: 100.0 mg/kg/injection, schedule: Q01DX001 (ip), vehicle: saline 102 % of control | [24] 98 % of control | [25] 98 % of control

O=C(O)c1ccccc1N=Cc1ccccc1
inactive: [9] 93 % of control | [11] 120 % of control | [12] 101 % of control

COC1OC(COS(C)(=O)=O)C(OS(C)(=O)=O)C(OC(=O)c2ccccc2)C1OC(=O)c1ccccc1 (stereo not given)
inactive: [1] 109 % of control | [2] 101 % of control | [3] 101 % of control

CC(=O)Oc1cc(-c2c(C)cc(C)cc2C)c(OC(C)=O)cc1C
inactive: [18] 104 % of control | [15] 94 % of control | [19] 97 % of control | [16] 90 % of control | [20] 97 % of control | [17] 95 % of control

Cc1ccc(S(=O)(=O)N/N=C2\C(=O)C3CCC2C3Cl)cc1 (stereo not given)
inactive: [4] 89 % of control | dose: 150.0 mg/kg/injection, schedule: Q01DX001 (ip), vehicle: other 92 % of control
